Measurements taken from ChEMBL document CHEMBL4376882, “Photodynamic Therapy for ras-Driven Cancers: Targeting G-Quadruplex RNA Structures with Bifunctional Alkyl-Modified Porphyrins” (J Med Chem, 2020).
Active and inactive are the calls of the source. No cut-off for these calls is given here.

Tests used:
[1] = target: GTPase NRas (Homo sapiens) (UniProt P01111); test: Inhibition of NRAS in human PANC1 cells assessed as downregulation of NRAS expression at 15 nM after 4 hrs by Western blot analysis; assay type: cell-based
GTPase NRas (Homo sapiens), sequence (P01111 whole entry): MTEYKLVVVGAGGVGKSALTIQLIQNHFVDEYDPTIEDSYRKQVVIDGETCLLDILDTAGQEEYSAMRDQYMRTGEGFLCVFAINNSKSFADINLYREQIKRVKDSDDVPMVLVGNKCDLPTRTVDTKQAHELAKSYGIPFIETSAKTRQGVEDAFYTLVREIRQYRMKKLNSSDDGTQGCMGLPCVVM

[2] = test system: PANC-1; test: Photodynamic antitumor activity against human PANC1 cells xenografted in SCID mouse assessed as reduction in tumor growth at 3 mg/kg administered intratumorally after 2 hrs photoirradiated by diode laser at 193 J/cm2 by micrometer caliper method; assay type: functional, organism-based
[3] = test system: Quadruplex DNA; test: Induction of ROS-mediated […] labeled Ras RNA g-quadruplex (unknown origin) degradation assessed as increase in residual RNA g-quadruplex at 0.6 uM incubated for 30 mins in presence of NAC followed by photoirradiation for 15 to 30 mins by PAGE analysis relative to control; assay type: nucleic-acid assay
[4] = target: Quadruplex DNA; test: Binding affinity to human KRAS utr-1 RNA g-quadruplex by fluorescence spectroscopy; assay type: nucleic-acid assay
[5] = test system: PANC-1; test: Induction of apoptosis in human PANC1 cells assessed as viable cells at 10 nM and photoirradiated at 7.2 J/cm2 measured after 6 to 24 hrs by annexin-V-propidium iodide staining based FACScalibur flow cytometry analysis (reference value: 91.9 %); assay type: functional; details: PANC-1, light or radiation study, read-out: Activity
[6] = test system: PANC-1; test: Induction of apoptosis in human PANC1 cells assessed as early apoptotic cells at 15 nM and photoirradiated at 7.2 J/cm2 measured after 6 to 24 hrs by annexin-V-propidium iodide staining based FACScalibur flow cytometry analysis (reference value: 4.6 %); assay type: functional
[7] = test system: PANC-1; test: Induction of apoptosis in human PANC1 cells assessed as late apoptotic cells at 15 nM and photoirradiated at 7.2 J/cm2 measured after 6 to 24 hrs in presence of NAC by annexin-V-propidium iodide staining based FACScalibur flow cytometry analysis (reference value: 1.3 %); assay type: functional
[8] = test system: Quadruplex DNA; test: Binding affinity to human KRAS utr-z RNA g-quadruplex assessed as emission spectra at absorbance 650 to 715 nm 1 uM by fluorescence titration method; assay type: nucleic-acid assay
[9] = Induction of ROS-mediated […] labelled 20-mer utr-c stem-loop RNA (unknown origin) degradation at 0.6 uM incubated for 30 mins followed by photoirradiation for 15 to 30 mins by PAGE analysis
[10] = test system: PANC-1; test: Induction of apoptosis in human PANC1 cells assessed as cleavage of PARP1 when photoirradiated at 7.2 J/cm2 by Western blot analysis; assay type: functional, cell-based
[11] = Induction of ROS-mediated […] labelled 20-mer utr-z stem-loop RNA (unknown origin) degradation at 0.6 uM incubated for 30 mins followed by photoirradiation for 15 to 30 mins by PAGE analysis
[12] = Drug uptake in mouse NIH/3T3 cells at 5 uM and 4 degree C after 16 hrs by FACS analysis relative to 37 degree C; assay type: ADME, cell-based; details: nih3t3, 16 h
[13] = test system: PANC-1; test: Induction of apoptosis in human PANC1 cells assessed as necrotic cells at 15 nM and photoirradiated at 7.2 J/cm2 measured after 6 to 24 hrs by annexin-V-propidium iodide staining based FACScalibur flow cytometry analysis (reference value: 0.7 %); assay type: functional
[14] = test system: PANC-1; test: Induction of apoptosis in human PANC1 cells assessed as necrotic cells at 10 nM and photoirradiated at 7.2 J/cm2 measured after 6 to 24 hrs in presence of NAC by annexin-V-propidium iodide staining based FACScalibur flow cytometry analysis (reference value: 1 %); assay type: functional
[15] = Binding affinity to NRAS RNA g-quadruplex (unknown origin) at 40 degree C by SPR analysis; assay type: nucleic-acid assay
[16] = test system: PANC-1; test: Cytotoxicity against human PANC1 cells assessed as reduction in metabolic activity at 20 nM after 24 to 72 hrs in dark followed by photoirradiation in presence of NADH and NAC by resazurin assay; assay type: functional, cell-based
[17] = test system: PANC-1; test: Induction of apoptosis in human PANC1 cells assessed as early apoptotic cells at 10 nM and photoirradiated at 7.2 J/cm2 measured after 6 to 24 hrs by annexin-V-propidium iodide staining based FACScalibur flow cytometry analysis (reference value: 4.6 %); assay type: functional
[18] = test system: PANC-1; test: Induction of apoptosis in human PANC1 cells assessed as viable cells at 15 nM and photoirradiated at 7.2 J/cm2 measured after 6 to 24 hrs in presence of NAC by annexin-V-propidium iodide staining based FACScalibur flow cytometry analysis (reference value: 94.5 %); assay type: functional; details: PANC-1, light or radiation study, read-out: Activity
[19] = test system: PANC-1; test: Induction of apoptosis in human PANC1 cells assessed as late apoptotic cells at 5 nM and photoirradiated at 7.2 J/cm2 measured after 6 to 24 hrs by annexin-V-propidium iodide staining based FACScalibur flow cytometry analysis (reference value: 2.7 %); assay type: functional
[20] = test system: PANC-1; test: Induction of apoptosis in human PANC1 cells assessed as cleavage of caspase 3 when photoirradiated at 7.2 J/cm2 by Western blot analysis; assay type: functional, cell-based
[21] = test system: Quadruplex DNA; test: Binding affinity to human KRAS utr-z RNA g-quadruplex assessed as induction of hypochromicity at 1.6 uM by UV-vis spectrophotometry relative to control; assay type: nucleic-acid assay
[22] = Drug uptake in human PANC1 cells at 5 uM after 16 hrs by FACS analysis; assay type: ADME, cell-based; details: panc-1, 16 h
[23] = test system: HEK293; test: Cytotoxicity against human HEK293 cells assessed as reduction in metabolic activity after 24 to 72 hrs in dark followed by photoirradiation in presence of NADH by resazurin assay; assay type: ADME, cell-based
[24] = Induction of ROS-mediated Cys5.5 labelled utr-c RNA duplex (unknown origin) degradation at 0.6 uM incubated for 30 mins followed by photoirradiation for 15 to 30 mins by PAGE analysis
[25] = test system: PANC-1; test: Induction of apoptosis in human PANC1 cells assessed as necrotic cells at 5 nM and photoirradiated at 7.2 J/cm2 measured after 6 to 24 hrs by annexin-V-propidium iodide staining based FACScalibur flow cytometry analysis (reference value: 0.7 %); assay type: functional
[26] = target: GTPase KRas (Homo sapiens) (UniProt P01116); test: Inhibition of KRAS in human PANC1 cells assessed as downregulation of KRAS expression at 15 nM after 4 hrs by Western blot analysis; assay type: cell-based
GTPase KRas (Homo sapiens), sequence (P01116 whole entry, looked up): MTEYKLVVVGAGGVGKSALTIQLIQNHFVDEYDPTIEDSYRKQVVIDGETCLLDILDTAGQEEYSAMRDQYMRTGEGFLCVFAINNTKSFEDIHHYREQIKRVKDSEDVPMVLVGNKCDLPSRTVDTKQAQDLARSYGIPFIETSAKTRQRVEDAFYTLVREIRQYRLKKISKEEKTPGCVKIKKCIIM

[27] = test system: PANC-1; test: Induction of apoptosis in human PANC1 cells assessed as late apoptotic cells at 15 nM and photoirradiated at 7.2 J/cm2 measured after 6 to 24 hrs by annexin-V-propidium iodide staining based FACScalibur flow cytometry analysis (reference value: 2.7 %); assay type: functional
[28] = target: GTPase KRas (Homo sapiens) (UniProt P01116); test: Inhibition of KRAS in human PANC1 cells assessed as downregulation of KRAS expression at 15 nM followed by 7.2 J/cm2 irradiation after 4 hrs by Western blot analysis (reference value: 5 %); assay type: cell-based
[29] = test system: PANC-1; test: Induction of ROS generation in human PANC1 cells cleavage of CM-H2DCFDA to CM-H2DCF by intracellular esterase by measuring green fluorescence emission incubated for 16 hrs in presence of NAC followed by 7.2J/cm2 photoirradiation and subsequent compound washout measured after 40 mins by CM-H2DCFDA staining-based FACSCalibur flow cytometry; assay type: functional, cell-based
[30] = Drug uptake in human PANC1 cells in presence of dynamin-inhibitor dynasore; assay type: ADME, cell-based; details: panc-1

## CCCCCCCCCCCCCC[n+]1ccc(-c2c3nc(c(-c4cc[n+](C)cc4)c4ccc([nH]4)c(-c4cc[n+](C)cc4)c4nc(c(-c5cc[n+](C)cc5)c5ccc2[nH]5)C=C4)C=C3)cc1.[I-].[I-].[I-].[I-]
[1]
  inhibition: inactive
[2]
  Activity: Active
[3]
  Activity: 50%
[4]
  Kd: 236 nM
[5]
  viability at 0.01 µM: 82.1%
[6]
  Activity: 4.5%
[7]
  Activity: 5%
[8]
  Activity: Active
[9]
  Activity: inactive
[10]
  Activity: Active
[11]
  Activity: inactive
[12]
  Drug uptake: Active
[13]
  Activity: 4.1%
[14]
  Activity: 2.3%
[15]
  Kd: 56 to 98 nM
[16]
  Activity: inactive
[17]
  Activity: 4.8%
[18]
  viability at 0.015 µM: 89.4%
[19]
  Activity: 6.1%
[20]
  Activity: Active
[21]
  Activity: 50%
[22]
  Drug uptake: Active
[23]
  Activity: Non-Toxic
[24]
  Activity: inactive
[25]
  Activity: 0.6%
[26]
  inhibition: inactive
[27]
  Activity: 20.8%
[28]
  inhibition: 20%
[29]
  Activity: inactive
[30]
  Drug uptake: Not Active
